Numbered stars: 1 amine (or outer) side, 2 acyl side, 3 side chain; on linkers, the order of the positions; unused ones are H or OH. Square brackets hold non-standard residues; d marks the D form. Peptide text beside a SMILES is read from it. * marks the point of attachment. NMeW = CN[C@@H](Cc1c[nH]c2ccccc12)C(=O)O; X2 = NS(=O)(=O)N[C@@H](CC(=O)O)C(=O)*; NMeY = CN[C@@H](Cc1ccc(O)cc1)C(=O)O; X1 = NC(=O)N[C@@H](CC(=O)O)C(=O)*; NMeF = CN[C@@H](Cc1ccccc1)C(=O)O; NMeI = CC[C@H](C)[C@H](NC)C(=O)O; Aad = N[C@@H](CCCC(=O)O)C(=O)O; NMeD = CN[C@@H](CC(=O)O)C(=O)O; Methoxyoxalyl = COC(=O)C(=O)*; NMeL = CN[C@@H](CC(C)C)C(=O)O; Suc = O=C(CCC(=O)[*:2])[*:1]; NMeV = CN[C@H](C(=O)O)C(C)C; Oxamoyl = NC(=O)C(=O)*; CONHOH = O=C(NO)*
What was measured:
Substance-K receptor = molecular target: T1, Substance-K receptor (Homo sapiens, UniProt P21452); assay: Displacement of [125I]-NKA from NK2 receptor (unknown origin) expressed in CHO cells by scintillation counter; assay type: cell-based
T1 sequence (P21452 whole entry): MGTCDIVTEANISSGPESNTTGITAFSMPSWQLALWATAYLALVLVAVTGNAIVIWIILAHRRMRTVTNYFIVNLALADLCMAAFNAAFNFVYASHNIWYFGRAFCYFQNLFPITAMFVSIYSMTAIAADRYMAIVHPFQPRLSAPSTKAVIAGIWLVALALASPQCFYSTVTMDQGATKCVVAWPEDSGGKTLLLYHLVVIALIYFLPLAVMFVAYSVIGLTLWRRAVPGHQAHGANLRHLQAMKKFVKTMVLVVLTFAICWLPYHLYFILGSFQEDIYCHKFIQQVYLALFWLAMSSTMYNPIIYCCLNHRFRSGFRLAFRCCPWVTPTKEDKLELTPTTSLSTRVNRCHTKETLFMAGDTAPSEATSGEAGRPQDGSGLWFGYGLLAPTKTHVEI

Neuromedin-K receptor [1] = molecular target: T2, Neuromedin-K receptor (Homo sapiens, UniProt P29371); assay: Agonist activity at human NK3 receptor expressed in CHO cells assessed as calcium influx relative to 100 nM senktide; assay type: functional, cell-based
T2 sequence (P29371 whole entry): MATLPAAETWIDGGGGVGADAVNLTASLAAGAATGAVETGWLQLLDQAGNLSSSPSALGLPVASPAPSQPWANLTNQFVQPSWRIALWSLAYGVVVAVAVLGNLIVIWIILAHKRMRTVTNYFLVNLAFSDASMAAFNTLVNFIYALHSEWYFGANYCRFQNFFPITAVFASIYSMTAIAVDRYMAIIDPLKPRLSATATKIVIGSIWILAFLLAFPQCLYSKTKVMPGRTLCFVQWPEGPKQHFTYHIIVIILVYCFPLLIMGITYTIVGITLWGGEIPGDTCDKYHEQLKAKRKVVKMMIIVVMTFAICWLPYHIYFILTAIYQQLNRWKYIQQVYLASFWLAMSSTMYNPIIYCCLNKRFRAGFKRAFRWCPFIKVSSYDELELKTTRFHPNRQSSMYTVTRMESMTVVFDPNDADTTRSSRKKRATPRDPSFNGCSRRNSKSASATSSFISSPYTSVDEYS

Neuromedin-K receptor [2] = molecular target: T2, Neuromedin-K receptor; assay: Displacement of ([125I]His3-MePhe7)-NKB from NK3 receptor (unknown origin) expressed in CHO cells by scintillation counter; assay type: cell-based
Substance-P receptor = Substance-P receptor (Homo sapiens, UniProt P25103); assay: Displacement of [125I]-BH-SP from NK1 receptor (unknown origin) expressed in CHO cells by scintillation counter; assay type: cell-based
Substance-P receptor, sequence (P25103 whole entry): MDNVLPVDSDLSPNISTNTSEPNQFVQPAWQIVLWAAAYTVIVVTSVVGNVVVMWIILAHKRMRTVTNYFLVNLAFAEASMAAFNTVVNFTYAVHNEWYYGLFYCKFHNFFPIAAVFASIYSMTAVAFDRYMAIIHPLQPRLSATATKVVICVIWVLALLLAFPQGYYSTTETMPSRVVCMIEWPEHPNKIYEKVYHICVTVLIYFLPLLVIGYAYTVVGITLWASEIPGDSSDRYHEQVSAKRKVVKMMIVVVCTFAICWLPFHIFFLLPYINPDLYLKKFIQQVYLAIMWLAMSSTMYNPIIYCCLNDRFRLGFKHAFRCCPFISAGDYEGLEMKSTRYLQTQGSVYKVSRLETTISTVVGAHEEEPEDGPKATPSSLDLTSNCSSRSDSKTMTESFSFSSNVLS

[3] = molecular target: T3, Neuromedin-K receptor (Homo sapiens) (UniProt P29371); assay: Potency index, ratio of EC50 for […] to EC50 for test compound for agonist activity at human NK3 receptor
T3 sequence (whole entry): T2 sequence (P29371 whole entry)

[4] = molecular target: T3, Neuromedin-K receptor (Homo sapiens); assay: Potency index, ratio of IC50 for […] to IC50 for test compound for binding affinity to NK3 receptor (unknown origin)

SMILES	IC50 (Substance-K receptor)	EC50 (Neuromedin-K receptor [1])	IC50 (Neuromedin-K receptor [2])	IC50 (Substance-P receptor)	Ratio EC50 [3]	Ratio IC50 [4]
CSCC[C@H](NC(=O)[C@H](CC(C)C)NC(=O)CNC(=O)[C@H](Cc1ccccc1)N(C)C(=O)[C@H](Cc1ccccc1)NC(=O)[C@H](CC(=O)O)NC(=O)[C@H](CC(=O)O)NC(C)=O)C(N)=O	> 10000 nM	0.031 nM	68 nM	> 10000 nM		
CSCC[C@H](NC(=O)[C@H](CC(C)C)NC(=O)CNC(=O)[C@H](Cc1ccc(O)cc1)N(C)C(=O)[C@H](Cc1ccccc1)NC(=O)[C@H](CC(=O)O)NC(=O)CCC(=O)O)C(N)=O (Suc-DF[NMeY]GLM-NH2)	> 10000 nM	0.041 nM	28 nM	> 10000 nM		
CSCC[C@H](NC(=O)[C@H](CC(C)C)NC(=O)CNC(=O)[C@H](Cc1ccccc1)N(C)C(=O)[C@H](Cc1ccccc1)NC(=O)[C@H](CC(=O)O)NC(N)=O)C(N)=O (X1-F[NMeF]GLM-NH2)	> 10000 nM	0.013 nM	39 nM	> 10000 nM		
CSCC[C@H](NC(=O)[C@H](CC(C)C)NC(=O)CNC(=O)[C@H](Cc1ccccc1)N(C)C(=O)[C@H](Cc1ccccc1)NC(=O)[C@@H](CC(=O)O)NC(=O)CCC(=O)O)C(N)=O	> 10000 nM					
CC[C@H](C)[C@@H](C(=O)NCC(=O)N[C@@H](CC(C)C)C(=O)N[C@@H](CCSC)C(N)=O)N(C)C(=O)[C@H](Cc1ccccc1)NC(=O)[C@H](CC(=O)O)NC(=O)CCC(=O)O (Suc-DF[NMeI]GLM-NH2)	> 10000 nM	0.05 nM	91 nM	> 10000 nM		
CSCC[C@H](NC(=O)[C@H](CC(C)C)NC(=O)CNC(=O)[C@H](Cc1ccccc1)N(C)C(=O)[C@H](Cc1ccccc1)NC(=O)[C@H](CC(=O)O)NC(=O)[C@@H](N)CC(=O)O)C(N)=O (H-DDF[NMeF]GLM-NH2)	> 10000 nM	0.063 nM	175 nM	> 10000 nM		
CSCC[C@H](NC(=O)[C@H](CC(C)C)NC(=O)CNC(=O)[C@H](Cc1ccccc1)N(C)C(=O)[C@H](Cc1ccccc1)NC(=O)[C@@H](CCC(=O)O)NC(=O)[C@H](CC(=O)O)NC(C)=O)C(N)=O	> 10000 nM	0.018 nM	37 nM	> 10000 nM		
CSCC[C@H](NC(=O)[C@H](CC(C)C)NC(=O)CNC(=O)[C@H](Cc1ccccc1)N(C)C(=O)[C@H](Cc1ccccc1)NC(=O)[C@H](CCC(=O)O)NC(=O)[C@@H](CC(=O)O)NC(C)=O)C(N)=O	> 10000 nM	0.012 nM	13 nM	> 10000 nM	2	3
CSCC[C@H](NC(=O)[C@H](CC(C)C)NC(=O)CNC(=O)[C@H](Cc1ccccc1)N(C)C(=O)[C@H](Cc1ccccc1)NC(=O)[C@H](CC(=O)O)NC(=O)[C@@H](CC(=O)O)NC(C)=O)C(N)=O	> 10000 nM	0.018 nM	73 nM	> 10000 nM		
CSCC[C@H](NC(=O)[C@H](CC(C)C)NC(=O)CNC(=O)[C@H](Cc1ccccc1)N(C)C(=O)[C@H](Cc1ccccc1)NC(=O)[C@H](CC(=O)O)NC(=O)NO)C(N)=O ({CONHOH}-DF[NMeF]GLM-NH2)	> 10000 nM	0.043 nM	10 nM	> 10000 nM		
CSCC[C@H](NC(=O)[C@H](CC(C)C)NC(=O)CNC(=O)[C@H](Cc1ccccc1)N(C)C(=O)[C@H](Cc1ccccc1)NC(=O)[C@@H](CCC(=O)O)NC(=O)[C@@H](CC(=O)O)NC(C)=O)C(N)=O	> 10000 nM	0.017 nM	68 nM	> 10000 nM		
CSCC[C@H](NC(=O)[C@H](CC(C)C)NC(=O)CNC(=O)[C@H](C(C)C)N(C)C(=O)[C@H](Cc1ccccc1)NC(=O)[C@H](CC(=O)O)NC(=O)CCC(=O)O)C(N)=O (Suc-DF[NMeV]GLM-NH2)	> 10000 nM	0.064 nM	104 nM	> 10000 nM		
CSCC[C@H](NC(=O)[C@H](CC(C)C)NC(=O)CNC(=O)[C@H](Cc1ccccc1)N(C)C(=O)[C@H](Cc1ccccc1)NC(=O)[C@@H](CCC(=O)O)NC(=O)CCC(=O)O)C(N)=O	> 10000 nM	0.084 nM	24 nM	> 10000 nM		
CSCC[C@H](NC(=O)[C@H](CC(C)C)NC(=O)CNC(=O)[C@H](CC(C)C)N(C)C(=O)[C@H](Cc1ccccc1)NC(=O)[C@H](CC(=O)O)NC(=O)CCC(=O)O)C(N)=O (Suc-DF[NMeL]GLM-NH2)			> 10000 nM			
CSCC[C@H](NC(=O)[C@H](CC(C)C)NC(=O)CNC(=O)[C@H](CC(=O)O)N(C)C(=O)[C@H](Cc1ccccc1)NC(=O)[C@H](CC(=O)O)NC(=O)CCC(=O)O)C(N)=O (Suc-DF[NMeD]GLM-NH2)			> 10000 nM			
CSCC[C@H](NC(=O)[C@H](CC(C)C)NC(=O)CNC(=O)[C@H](Cc1ccccc1)N(C)C(=O)[C@H](Cc1ccccc1)NC(=O)[C@@H](CC(=O)O)NC(=O)[C@H](CC(=O)O)NC(C)=O)C(N)=O	> 10000 nM	0.024 nM	83 nM	> 10000 nM		
CSCC[C@H](NC(=O)[C@H](CC(C)C)NC(=O)CNC(=O)[C@H](Cc1ccccc1)N(C)C(=O)[C@H](Cc1ccccc1)NC(=O)[C@H](CC(=O)O)NC(=O)NN)C(N)=O	> 10000 nM	0.006 nM	34 nM	> 10000 nM		
CSCC[C@H](NC(=O)[C@H](CC(C)C)NC(=O)CNC(=O)[C@H](Cc1ccccc1)N(C)C(=O)[C@H](Cc1ccccc1)NC(=O)[C@@H](CC(=O)O)NC(=O)[C@@H](CC(=O)O)NC(C)=O)C(N)=O	> 10000 nM	0.017 nM	55 nM	> 10000 nM		
CSCC[C@H](NC(=O)[C@H](CC(C)C)NC(=O)CNC(=O)[C@H](Cc1c[nH]c2ccccc12)N(C)C(=O)[C@H](Cc1ccccc1)NC(=O)[C@H](CC(=O)O)NC(=O)CCC(=O)O)C(N)=O (Suc-DF[NMeW]GLM-NH2)	> 10000 nM	0.033 nM	123 nM	> 10000 nM		

More lines, in order of falling IC50 (Neuromedin-K receptor [2]), values ahead:

IC50 (Substance-K receptor)	EC50 (Neuromedin-K receptor [1])	IC50 (Neuromedin-K receptor [2])	IC50 (Substance-P receptor)	Ratio EC50 [3]	Ratio IC50 [4]	SMILES
> 10000 nM	0.019 nM	9.9 nM	> 10000 nM	2		CSCC[C@H](NC(=O)[C@H](CC(C)C)NC(=O)CNC(=O)[C@H](Cc1ccccc1)N(C)C(=O)[C@H](Cc1ccccc1)NC(=O)[C@H](CCCC(=O)O)NC(=O)CCC(=O)O)C(N)=O (Suc-[Aad]F[NMeF]GLM-NH2)
> 10000 nM	0.011 nM	7.9 nM	> 10000 nM			CSCC[C@H](NC(=O)[C@H](CC(C)C)NC(=O)CNC(=O)[C@H](Cc1ccccc1)N(C)C(=O)[C@H](Cc1ccccc1)NC(=O)[C@H](CC(=O)O)NC(=O)C(N)=O)C(N)=O (Oxamoyl-DF[NMeF]GLM-NH2)
> 10000 nM	0.0081 nM	7.7 nM	> 10000 nM	3	5	CSCC[C@H](NC(=O)[C@H](CC(C)C)NC(=O)CNC(=O)[C@H](Cc1ccccc1)N(C)C(=O)[C@H](Cc1ccccc1)NC(=O)[C@H](CCC(=O)O)NC(=O)[C@H](CC(=O)O)NC(C)=O)C(N)=O
> 10000 nM	0.03 nM	6.1 nM	> 10000 nM	2		CSCC[C@H](NC(=O)[C@H](CC(C)C)NC(=O)CNC(=O)[C@H](Cc1ccccc1)N(C)C(=O)[C@H](Cc1ccccc1)NC(=O)[C@H](CCC(=O)O)NC(=O)CCC(=O)O)C(N)=O
> 10000 nM	0.0025 nM	5.6 nM	> 10000 nM			CSCC[C@H](NC(=O)[C@H](CC(C)C)NC(=O)CNC(=O)[C@H](Cc1ccccc1)N(C)C(=O)[C@H](Cc1ccccc1)NC(=O)[C@H](CC(=O)O)NS(N)(=O)=O)C(N)=O (X2-F[NMeF]GLM-NH2)
> 10000 nM	0.0029 nM	4.1 nM	> 10000 nM			COC(=O)C(=O)N[C@@H](CC(=O)O)C(=O)N[C@@H](Cc1ccccc1)C(=O)N(C)[C@@H](Cc1ccccc1)C(=O)NCC(=O)N[C@@H](CC(C)C)C(=O)N[C@@H](CCSC)C(N)=O (Methoxyoxalyl-DF[NMeF]GLM-NH2)
> 10000 nM	0.083 nM	3.6 nM	> 10000 nM		10	CSCC[C@H](NC(=O)[C@H](CC(C)C)NC(=O)CNC(=O)[C@H](Cc1ccccc1)N(C)C(=O)[C@H](Cc1ccccc1)NC(=O)[C@H](CC(=O)O)NC(=O)C(=O)O)C(N)=O
> 10000 nM	0.022 nM	3.5 nM	> 10000 nM		10	CSCC[C@H](NC(=O)[C@H](CC(C)C)NC(=O)CNC(=O)[C@H](Cc1ccccc1)N(C)C(=O)[C@H](Cc1ccccc1)NC(=O)[C@@H](CC(=O)O)NC(=O)C(=O)O)C(N)=O
